These results are taken from US8569578B1, “Generating transgenic potatoes with novel resistance to potato cyst nematodes by silencing nematode parasitism genes of CLE -1 and CLE-4s” (The United States of America, as represented by the …, priority 2009, dated 2013).

Holding throughout (assay type): in vivo
For data set [1], the system named is Arabidopsis (Columbia-0) roots. Description: in vitro root assay with synthetic CLE peptides on Arabidopsis roots. Conditions: 10 μM peptide in assay medium, compared with no peptide or Ag-16p. An excerpt:
(§1) Mounting evidence supports that the conserved CLE motif represents the major functional domain of plant CLE proteins. Gr-CLE genes encode four different 12-aa CLE motifs (FIG. 1A). To examine the functional sufficiency of these nematode CLE motifs, we conducted in vitro root assays (Fiers et al. 2005) using synthetic dodecapeptides (GrCLE1-1-12p, GrCLE4-1-12p, GrCLE4-2-12p, and GrCLE4-3-12p) corresponding to the four CLE motifs of Gr-CLE proteins. A 16-aa peptide (Ag-16p) (Fiers et al. 2005) corresponding to the C-terminus of AGAMOUS that has no similarity with plant CLE motifs and a 12-aa CLV3 peptide (CLV3-12p) were used as negative and positive controls, respectively. In addition, several peptides, including a mutated GrCLE1-1 dodecapeptide (GrCLE1-1m-12p, with a Gly-to-Ala conversion as in clv3-1 and clv3-5 mutants), a 14-aa GrCLE1-1 peptide (GrCLE1-1-14p, with one additional N-terminal and one additional C-terminal residue compared to Gr-CLE1-1-12p), and three 13-aa peptides of GrCLE4-1-13p, GrCLE4-2-13p, and GrCLE4-3-13p (all contained an extra N-terminal lysine residue compared to the corresponding dodecapeptides), were synthesized and used in the in vitro root assays.
(§2) Peptides with a purity of >70% were synthesized (Sigma-Aldrich Corp., St. Louis, Mo., U.S.A) and dissolved in filter-sterilized 50 mM sodium phosphate buffer. Three Gr-CLE-1 related peptides were synthesized: GrCLE1-1-12p (12 aa, RVIPGGPDPLHN; SEQ ID NO: 12), GrCLE1-1m-12p (12 aa, RVIPGAPDPLHN; SEQ ID NO: 13, with a G-to-A conversion at position 6), and GrCLE1-1-14p (14 aa, KRVIPGGPDPLHNR; SEQ ID NO: 14). Six Gr-CLE-4 related peptides were synthesized: GrCLE4-1-12p (12 aa, RVAGAGPDPIHH; SEQ ID NO: 15), GrCLE4-1-13p (13 aa, KRVAGAGPDPIHH; SEQ ID NO: 16), GrCLE4-2-12p (12 aa, RAVPAGPDPKHH; SEQ ID NO: 17), GrCLE4-2-13p (13 aa, KRAVPAGPDPKHH; SEQ ID NO: 18), GrCLE4-3-12p (12 aa, RGAPAGPDP IHH; SEQ ID NO: 19), and GrCLE4-3-13p (13 aa, KRGAPAGPDPIHH; SEQ ID NO: 20). Positive and negative control peptides included CLV3-12p (12 aa, RTVPSGPDPLHH; SEQ ID NO: 21) and Ag-16p (16 aa, APNNHHYSSAGRQDQT; SEQ ID NO: 22) (Fiers et al., 2005).
(§3) For peptide treatments, seeds of wild-type Arabidopsis (Columbia-0) and potato, nonhost and host of G. rostochiensis, respectively, were surface-sterilized and plated on square plates (8-12 seeds per plate) containing the assay medium (Fiers et al. 2005, supra) with 10 μM of each peptide. Assay plates were placed vertically in a growth chamber and cultured at 23° C. for 16 h of light and 8 h of dark. The root length was measured from the base of the hypocotyl to the tip of the primary root at several time points after plating. Two independent experiments were conducted.

The next data set relates to potato roots. Description: in vitro root assay with synthetic CLE peptides on potato roots. Conditions: 10 μM peptide in assay medium, compared with no peptide or Ag-16p.
Source text: as §1, §2, §3

Another data set concerns potato hairy roots. Description: overexpression of Gr-CLE genes in potato hairy roots. Conditions: measured at 4, 6, 8 and 10 days after dissecting; compared with vector control. The text has this: To examine root meristems, primary root tips were excised from peptide treated Arabidopsis seedlings or from transgenic potato hairy roots and immediately mounted in water onto a glass slide. Roots were examined under an Olympus BX-50 microscope equipped with Nomarski optics and images were captured using a QImaging Retiga EXi digital CCD camera (QImaging, Surrey, BC, Canada). The root apical meristem (RAM) regions of individual primary roots that covered the distance from the position around the quiescent center to the position where elongated root cells immediately follow cytoplasm-dense meristematic cells were measured microscopically. The collected data were analyzed using the MetaMorph imaging analysis software (Universal Imaging Corporation, Downingtown, Pa., U.S.A.)
A. rhizogenes strain 15834 was transformed with individual transgene constructs of interest and used for the generation of potato hairy roots as described previously (Wang et al. 2007. Mol. Plant Pathol. 8:423-436) with some modifications. Potato stem pieces from tissue cultures were incubated with the transformed A. rhizogenes cell suspension for 10 mins, then transferred onto the callus induction medium containing 1×MS salts (Sigma-Aldrich), 26.7 μM Glycine, 4 μM Nicotinic Acid, 2.4 μM Pyridoxine HCL (Sigma-Aldrich), 1.2 μM Thiamine HCL (Sigma-Aldrich), 0.5 μM Folic Acid, 0.2 μM d-biotin (Sigma-Aldrich), 0.01% Myo-inositol (Acros, Morris Plains, N.J., U.S.A.), 3% sucrose, 0.001% 6-BAP (Sigma-Aldrich), 0.002% NAA (Sigma-Aldrich), and 1% agar and cultivated for four days at 24° C. without light. The infected stem pieces were then cultured on the propagation medium containing 1×MS salts, 1.2 mM NaH2PO4, 0.01% Myo-inositol, 0.1% Thiamine HCl, 3% sucrose, 1% agar, 50 μg/mL of kanamycin, and 238 μg/mL of timentin (GlaxoSmithKline). Timentin was used to inhibit the growth of A. rhizogenes 15834 and kanamycin was added to select for transformed roots. Approximately 12-15 days after root emergence, 1 cm-long root tips were dissected and cultured on vertical plates containing the propagation medium with 119 μg/mL of timentin and the root growth rate was measured at different time points.

“Also recorded” adds a separate entry of the source.

On to “KRVIPGGPDPLHNR (listed as Globodera rostochiensis) [GrCLE1-1-14p, 14 aa GrCLE1-1 peptide withone additional N-terminal and C-terminal residue]”, for which the “suppression of root growth (length of main root)” value (“suppression of root growth” for short) is “significantly shorter; also recorded: comparable level of root suppression activity as GrCLE1-1-12p” in data set [1] and “significantly shorter” with potato roots.

Consider “RVIPGAPDPLHN (listed as Globodera rostochiensis) [GrCLE1-1m-12p, mutated GrCLE1-1 dodecapeptide with a G-to-A conversion at position 6]”, for which the “suppression of root growth” value (in data set [1]; in the data set with potato roots) was “significantly shorter” each time.

Regarding “KRAVPAGPDPKHH (LRAVPAGPDPLHH; listed as Globodera rostochiensis) [GrCLE4-2-13p, 13 aa peptide with extra N-terminal lysine]”, the “suppression of root growth” value (in data set [1]; in the data set with potato roots) was “did not show activities on root suppression” in each case.

Consider “RVAGAGPDPIHH (listed as Globodera rostochiensis) [GrCLE4-1-12p, 12 aa Gr-CLE-4 related peptide]”, for which the “suppression of root growth” value (in data set [1]; in the data set on potato roots) was “suppressed root growth; also recorded: significantly shorter” throughout.

In the case of “RGAPAGPDP IHH (RGAPAGPDPIHH; listed as Globodera rostochiensis) [GrCLE4-3-12p, 12 aa Gr-CLE-4 related peptide]”, the “suppression of root growth” value (in data set [1]; in the data set on potato roots) was “suppressed root growth; also recorded: significantly shorter” in each case.

Regarding “KRVAGAGPDPIHH (LRVAGAGPDPIHH; listed as Globodera rostochiensis) [GrCLE4-1-13p, 13 aa peptide with extra N-terminal lysine]”, the “suppression of root growth” value (in data set [1]; in the data set with potato roots) was “did not show activities on root suppression” throughout.

Regarding “KRGAPAGPDPIHH (LRGAPAGPDPIHH; listed as Globodera rostochiensis) [GrCLE4-3-13p, 13 aa peptide with extra N-terminal lysine]”, the “suppression of root growth” value (in data set [1]; with potato roots) was “did not show activities on root suppression” in each case.

With “RAVPAGPDPKHH (RAVPAGPDPLHH; listed as Globodera rostochiensis) [GrCLE4-2-12p, 12 aa Gr-CLE-4 related peptide]”, the “suppression of root growth” value in data set [1] is reported as “significantly shorter”; in data set [1] (listed as Gr-CLE4-2-12p), “suppressed root growth”; in the data set with potato roots, “significantly shorter”; in the data set with potato roots (listed as Gr-CLE4-2-12p) it was “suppressed root growth”.

B1: Gr-CLE-4-D: G. rostochiensis CLE gene of class Gr-CLE-4, cDNA SEQ ID NO: 6 (nucleic acid, listed as Globodera rostochiensis)
DNA: ATCATAATTTCCAAAATCCCAATAAAAGCTTCCTCAATAAAGTAAATATGGCCAAGAACGCAATGCTTTGCCTGCTAATTTTGAGCGTTGTTCTCGCTCTCGCATTTGCTACGAATAAAAAGGATGATGAAGAACCGGAGAACCATTCGACCGGCATTTTTGGAAAGGTCGGACGAGTTGTGACCGTGGCACTTGCGATGTCGTCTCGTCTGGGAGGGGCTAACGCAACCCGAGGAGGTGGAGCTGTATATGGAAGAAACTTGAAATCCAATCAATTGCCAAACAACAATTGGATGGCGCCACCTCCTCCAATGGCAATGAGAAGTGCCAAAGTCTATGATTCGAAACATTCTCCTGCTGAATATCTTAAAAAATTTGCTCAAGACTTTCGCCGAAAAACCGGCACGCACTCCCAGCGGCATCACGAAGAAACAACACTGGAACAGGAGAAGCGTGGAGCGCCAGCTGGGCCCGACCCAATACATCACCAAGATACAACATTTGAACAGGAGAAGCGTGGAGCGCCAGCTGGGCCCGACCCAATACATCACCAAGATACAACACTGGAACAGGAGAAGCGTGTAGCGGGAGCTGGGCCCGACCCAATACATCACCAAGATACAAAATTTGAACAGGAGAAGCGTGGAGCGCCAGCTGGGCCCGACCCAATACATCACTGATGCTCTTATTCACAATGCTAAAATATTTTAGACTATAGATAAATTGCTAGCAACAGATAAATGCCTATTCAT
B1: in the data set with potato hairy roots, the “length of primary roots of transgenic potato hairy root lines” value is listed as “short root phenotype”.
